From patent publication US20120029196A1, “PURIFICATION 4-AZA-ANDROST-1-ENE-17-OIC ACID FROM 4-AZA-ANDROSTAN-17-OIC ACID” (PHF S.A., priority 2009, published 2012)

Experiment: solubility in solvents at 25° C.
Type: physicochemical
[1] = solvent Toluene, LOD = Limit Of Detection

C[C@]12CC[C@H]3[C@@H](CCC4NC(=O)C=C[C@@]43C)[C@@H]1CC[C@@H]2C(=O)O (stereo partly drawn) [Intermediate 1]
solubility at 25° C. (solvent Acetic Acid): 8.1 % w/w | solubility at 25° C. (solvent Acetone): 0.06 % w/w | solubility at 25° C. (solvent DMF): 2.4 % w/w | solubility at 25° C. (solvent Ethyl acetate): 0.02 % w/w | solubility at 25° C. (solvent Formic Acid): 7.7 % w/w | solubility at 25° C. (solvent MTBE): 0.009 % w/w | solubility at 25° C. (solvent Methanol): 0.6 % w/w | solubility at 25° C. (solvent Methylene chloride): 0.04 % w/w | solubility at 25° C. (solvent Propionic Acid): 6.6 % w/w | solubility at 25° C. [1]: <LOD

C[C@]12CC[C@H]3[C@@H](CCC4NC(=O)CC[C@@]43C)[C@@H]1CC[C@@H]2C(=O)O (stereo partly drawn) [Intermediate 2]
solubility in formic acid (comparison in words) (formic acid): higher than Intermediate 1 | solubility at 25° C. (solvent Acetic Acid): 3.69 % w/w | solubility at 25° C. (solvent Acetone): 0.008 % w/w | solubility at 25° C. (solvent DMF): 0.40 % w/w | solubility at 25° C. (solvent Ethyl acetate): 0.003 % w/w | solubility at 25° C. (solvent Formic Acid): 20.32 % w/w | solubility at 25° C. (solvent MTBE): 0.001 % w/w | solubility at 25° C. (solvent Methanol): 0.16 % w/w | solubility at 25° C. (solvent Methylene chloride): 0.008 % w/w | solubility at 25° C. (solvent Propionic Acid): 3.10 % w/w | solubility at 25° C. [1]: <LOD
